Data set [1] deals with HCV replicon gt1a_H77. Nature of the data set: Cell-based HCV replicon assay (TaqMan), genotype 1a (H77). Conditions: Hepatitis C virus, 72 h, replicon 1a (H77); replicon RNA by TaqMan, day 3. In a few lines:
(§1)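 Replicon cells seeded at 5000 cells/well with compound (10 serial 2-fold dilutions from 250 μM to 1 μM top dose; 0.5% DMSO, 5% FBS) and lysed on day 3. Replicon RNA quantified by multiplex TaqMan RT-PCR (NS5B amplicon, GAPDH control); ΔCT versus concentration fitted to sigmoid dose-response. Chimeras carry patient-isolate NS5A.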

Data set [2] relates to HCV replicon gt1b_con1. Nature of the data set: Cell-based HCV replicon assay (TaqMan), genotype 1b (Con1). Conditions: Hepatitis C virus, 72 h; replicon 1b (Con1); replicon RNA by TaqMan, day 3. The gist of the method: as §1
For data set [3], the system named is HCV chimeric replicon with NS5A of genotype 4a (DQ41878). As to the kind of experiment: Cell-based HCV replicon assay (TaqMan), chimeric replicon genotype 4a (DQ41878). Conditions: Hepatitis C virus, 72 h, read-out: HCV replicon EC50 4a (DQ41878). In a few lines:
as §1

Data set [4] concerns HCV replicon 1a (Y93H) mutant. Nature of the data set: Cell-based HCV replicon assay (TaqMan), genotype 1a mutant Y93H. Conditions: Hepatitis C virus, 72 h, read-out: HCV replicon EC50 1a (Y93H). In a few lines:
as §1

Data set [5] relates to HCV chimeric replicon with NS5A of genotype 2b (AB03090). Nature of the data set: Cell-based HCV replicon assay (TaqMan), chimeric replicon genotype 2b (AB03090). Conditions: Hepatitis C virus, 72 h, read-out: HCV replicon EC50 2b (AB03090), chimeric replicon 2b (AB03090); replicon RNA by TaqMan, day 3. As for the experimental part:
Measurement of inhibition by compounds of the present invention was performed using the HCV replicon system. Several different replicons encoding different HCV genotypes or mutations were used. In addition, potency measurements were made using different formats of the replicon assay, including different ways of measurements and different plating formats. See Jan M. Vrolijk et al., A replicons-based bioassay for the measurement of interferons in patients with chronic hepatitis C, 110 J. VIROLOGICAL METHODS 201 (2003); Steven S. Carroll et al., Inhibition of Hepatitis C Virus RNA Replication by 2′-Modified Nucleoside Analogs, 278(14) J. BIOLOGICAL […] 11979 (2003). However, the underlying principles are common to all of these determinations, and are outlined below.
Compounds of the present invention were assayed for cell-based anti-HCV activity using the following protocol. Replicon cells were seeded at 5000 cells/well in 96-well collagen I-coated Nunc plates in the presence of the test compound. Various concentrations of test compound, typically in 10 serial 2-fold dilutions, were added to the assay mixture, with the starting concentration ranging from 250 μM to 1 μM. The final concentration of DMSO was 0.5%, fetal bovine serum was 5%, in the assay media. Cells were harvested on day 3 by the addition of 1× cell lysis buffer (Ambion cat #8721). The replicon RNA level was measured using real time PCR (TaqMan® assay). The amplicon was located in 5B. The PCR primers were: 5B.2F, […] (SEQ. ID NO. 1); 5B.2R, […] (SEQ. ID NO. 2); the probe sequence was FAM-labeled […] (SEQ. ID NO. 3). GAPDH RNA was used as endogenous control and was amplified in the same reaction as NS5B (multiplex PCR) using primers and VIC-labeled probe recommended by the manufacturer (PE Applied Biosystem). The real-time RT-PCR reactions were run on ABI PRISM 7900HT Sequence Detection System using the following program: 48° C. for 30 minutes, 95° C. for 10 minutes, 40 cycles of 95° C. for 15 sec, 60° C. for 1 minute. The ΔCT values (CT5B-CTGAPDH) were plotted against the concentration of test compound and fitted to the sigmoid dose-response model using XLfit4 (MDL). […] Alternatively, to quantitate the absolute amount of replicon RNA, a standard curve was established by including serially diluted T7 transcripts of replicon RNA in the Taqman assay. All TaqMan® reagents were from PE Applied Biosystems. Such an assay procedure was described in detail in e.g. Malcolm et al., Antimicrobial Agents and Chemotherapy 50: 1013-1020 (2006).
Wherein gt1a_H77 was prepared as described in Yi et al., J Virol. 2004, 78(15):7904-15; gt1b_con1 was prepared as described in Lohmann et al., Science 1999, 285(5424):110-3; and gt2a_JFH was prepared as described in Kato et al., Gastroenterology. 2003, 125(6):1808-17. Chimeric replicons contain NS5A from patient isolates of genotypes 1a, 1b, 2b, 3a and 4a as indicated.

Data set [6] has as its system HCV replicon 1a (L31V) mutant. As to the kind of experiment: Cell-based HCV replicon assay (TaqMan), genotype 1a mutant L31V. Conditions: Hepatitis C virus, 72 h, read-out: HCV replicon EC50 1a (L31V). The gist of the method: as §1
A short description of data set [7]: Pharmacokinetic analysis in dogs. Conditions: Dog, dihydrochloride salt, 2 mpk/PO, 1 mpk/IV. It is filed as in vivo, male beagle dogs. As for the experimental part: Various pharmacokinetic parameters for compound 56 were measured in rats, dogs and monkeys as described below.
Following an overnight fast, male beagle dogs were dosed with the dihydrochloride salt of compound 56 orally at 2 mg/kg as a suspension in 0.4% hydroxylpropyl methylcellulose (HPMC) or intravenously at 1 mg/kg as a solution in 20% hydroxypropyl-β-cyclodextrin (20% HPβCD). For oral dosing, the animals were typically restrained by hand and dosed by oro-gastric intubation. Dogs were fed approximately 4 hours after dosing. Blood samples were collected from the jugular or cephalic vein at 0.25, 0.5, 1, 2, 4, 6, 8, 12, 24, 48, 72 and 96 hrs (PO) and 0.167, 0.25, 0.5, 1, 2, 4, 6, 8, 12, 24, 48, 72 and 96 hrs (IV) post-dosing and centrifuged to generate plasma. The plasma samples were stored at […] until analysis.
Collected plasma samples were analyzed for the presence of compound 56 using LC-MS/MS as described below.
The HPLC/API-MS/MS system for the example data consisted of a HPLC pumping system and a auto sampler with the sample tray refrigeration option connected directly to a triple quadrupole mass spectrometer with an API source. Typical HPLC methods for the example data was based on a fast gradient of two solvents: solvent A consisted of 0.1% formic acid in water, and solvent B consisted of 0.1% formic acid in acetonitrile. A fast linear gradient (start at 90% A for 0.2 min, ramp to 95% B from 0.2 to 0.5 min, hold at 95% B […], then ramp back to 90% A from 1.0 to 1.1 min, then hold at, […] from 1.1 to 1.2 min) was used. The flow rate for the HPLC system was set to 1 mL/min throughout the HPLC gradient; the HPLC column was a Halo C18 column (2.7 micron particle size, 50×2.1 mm). The example compounds were analyzed by positive ion atmospheric pressure chemical ionization tandem mass spectrometry (APCI-MS/MS). As a general procedure, selected reaction monitoring (SRM) methods were developed for each compound prior to analysis of the plasma samples. Normally, the individual SRM transitions were based on a fragmentation from the protonated molecule ([MH].) to a characteristic product ion.
Using the methods described above, the following pharmacokinetic parameters were calculated in rats, dogs and monkeys and the results are summarized in the table below.

The record followed here is patent US8609635B2, “Fused tricyclic silyl compounds and methods of use thereof for the treatment of viral diseases” (priority 2010, dated 2013).

Regarding `COC(=O)N[C@H](C(=O)N1CC(F)(F)C[C@H]1c1ncc(-c2ccc(-c3ccc4c(ccc5nc([C@@H]6C[Si](C)(C)CN6C(=O)[C@@H](NC(=O)OC)C(C)C)[nH]c54)c3)cc2)[nH]1)C(C)C` [Compound 56], the EC50 in data set [1] is 0.016 nM; in data set [2], 0.003 nM; in data set [3], 0.02 nM; in data set [4] it was 46 nM; in data set [5] it was 48 nM; in data set [6], 16 nM. Further, in data set [7], the “Effective Half-Life” value is 18 h. In data set [7], the “Volume of Distribution” value was determined as 1.3 L/kg. Besides, the “Oral Bioavailability” value in data set [7] (dose-normalized AUC between PO and IV) turned out to be 8.7%. Further, in data set [7] (male, beagle, plasma, 1 mg/kg, read-out: Systemic Clearance), the clearance came to 0.8 mL/min/kg.
